According to US9302999B2, “Substituted triazoles as herbicides” (E. I. DU PONT DE NEMOURS AND COMPANY, priority 2012, dated 2016):

Tests used:
Type in all cases: in vivo
[1] = system: sedge, umbrella (small-flower umbrella sedge, Cyperus difformis); assay: Test C flooded paddy test: sedge, umbrella; conditions: scale 0 to 100 (0 no effect, 100 complete control)
In short: (§1)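 Plants were grown to the 2-leaf stage, pots flooded to 3 cm above soil, and test compounds applied directly to the paddy water, with that depth held throughout. After 13 to 15 days in a greenhouse, injury was visually rated against controls on a 0 (no effect) to 100 (complete control) scale.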

[2] = system: barnyardgrass (Echinochloa crus-galli); assay: Test A pre-/postemergence: barnyardgrass; conditions: for Barnyardgrass plant response rating: Postemergence; for Plant response rating, Barnyardgrass: Preemergence
In short: (§2)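 Compounds, formulated with surfactant in non-phytotoxic solvent, were applied as a directed soil spray preemergence and as postemergence sprays to 2–10 cm, one- to two-leaf seedlings grown in loam soil blended with sand; visual injury, 0–100, assessed ~10 days post-treatment against untreated controls.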

[3] = system: foxtail, giant (giant foxtail, Setaria faberii); assay: Test A pre-/postemergence: foxtail, giant; conditions: for Foxtail, Giant plant response rating: Postemergence; for Plant response rating, Foxtail, Giant: Preemergence
In short: as §2

[4] = system: pigweed (Amaranthus retroflexus); assay: Test A pre-/postemergence: pigweed; conditions: for Pigweed plant response rating: Postemergence; for Plant response rating, Pigweed: Preemergence
In short: as §2

[5] = system: wheat (Triticum aestivum); assay: Test A pre-/postemergence: wheat; conditions: for Wheat plant response rating: Postemergence; for Plant response rating, Wheat: Preemergence
In short: as §2

[6] = system: velvetleaf (Abutilon theophrasti); assay: Test A pre-/postemergence: velvetleaf; conditions: for Velvetleaf plant response rating: Postemergence; for Plant response rating, Velvetleaf: Preemergence
In short: as §2

[7] = system: ducksalad (Heteranthera limosa); assay: Test C flooded paddy test: ducksalad; conditions: scale 0 to 100 (0 no effect, 100 complete control)
In short: as §1

[8] = system: barnyardgrass (Echinochloa crus-galli); assay: Test C flooded paddy test: barnyardgrass; conditions: scale 0 to 100 (0 no effect, 100 complete control)
In short: as §1

[9] = system: crabgrass, large (large crabgrass, Digitaria sanguinalis); assay: Test A pre-/postemergence: crabgrass, large; conditions: for Crabgrass, Large plant response rating: Postemergence; for Plant response rating, Crabgrass, Large: Preemergence
In short: as §2

[10] = system: morningglory (Ipomoea spp.); assay: Test A pre-/postemergence: morningglory; conditions: for Morningglory plant response rating: Postemergence; for Plant response rating, Morningglory: Preemergence
In short: as §2

[11] = system: rice (Oryza sativa); assay: Test C flooded paddy test: rice; conditions: scale 0 to 100 (0 no effect, 100 complete control)
In short: as §1

[12] = system: corn (Zea mays); assay: Test A pre-/postemergence: corn; conditions: for Corn plant response rating: Postemergence; for Plant response rating, Corn: Preemergence
In short: as §2

[13] = Flood (flooded paddy test), 62 g ai/ha, visual rating after 13 to 15 days
[14] = Flood (flooded paddy test), 250 g ai/ha, visual rating after 13 to 15 days
[15] = 125 g ai/ha, 0 to 100 scale, 0 is no effect, 100 is complete control
[16] = 500 g ai/ha, visual rating on 0 to 100 scale (0 no effect, 100 complete control), approximately ten days
[17] = 125 g ai/ha, 0 to 100 scale (0 no effect, 100 complete control)
[18] = 500 g ai/ha, 0 to 100 scale, 0 is no effect, 100 is complete control
[19] = Flood (flooded paddy test), 125 g ai/ha, visual rating after 13 to 15 days

`Cc1nn(-c2ccc(C(F)(F)F)cc2)nc1Cn1cnc(C(F)(F)F)c1Cl` [Compound 13] was tested, and the “Plant response rating, Sedge, Umbrella” value [1, 13] was 0, the “Plant response rating, Sedge, Umbrella” value [1, 14] was 0 and the “Barnyardgrass plant response rating” value [2, 15] was 0. The “Barnyardgrass plant response rating” value [2, 16] was 0, the “Plant response rating, Barnyardgrass” value [2, 17] was 0 and the “Plant response rating, Barnyardgrass” value [2, 18] was 0. The “Foxtail, Giant plant response rating” value [3, 15] was 0, the “Foxtail, Giant plant response rating” value [3, 16] was 10 and the “Plant response rating, Foxtail, Giant” value [3, 17] was 0. For the same molecule, the “Plant response rating, Foxtail, Giant” value [3, 18] was 0, the “Pigweed plant response rating” value [4, 15] was 0 and the “Pigweed plant response rating” value [4, 16] was 0. For the same molecule, the “Plant response rating, Pigweed” value [4, 17] was 0, the “Plant response rating, Pigweed” value [4, 18] was 0 and the “Wheat plant response rating” value [5, 15] was 0. The “Wheat plant response rating” value [5, 16] was 0, the “Plant response rating, Wheat” value [5, 17] was 0 and the “Plant response rating, Wheat” value [5, 18] was 0. The “Velvetleaf plant response rating” value [6, 15] was 0, the “Velvetleaf plant response rating” value [6, 16] was 0 and the “Plant response rating, Velvetleaf” value [6, 17] was 0. For the same molecule, the “Plant response rating, Velvetleaf” value [6, 18] was 0, the “Plant response rating, Ducksalad” value [7, 13] was 0 and the “Plant response rating, Ducksalad” value [7, 14] was 0. For the same molecule, the “Plant response rating, Barnyardgrass” value [8, 13] was 0, the “Plant response rating, Barnyardgrass” value [8, 14] was 0 and the “Crabgrass, Large plant response rating” value [9, 15] was 0. For the same molecule, the “Crabgrass, Large plant response rating” value [9, 16] was 0, the “Plant response rating, Crabgrass, Large” value [9, 17] was 0 and the “Plant response rating, Crabgrass, Large” value [9, 18] was 0. The “Morningglory plant response rating” value [10, 15] was 10, the “Morningglory plant response rating” value [10, 16] was 10 and the “Plant response rating, Morningglory” value [10, 17] was 0. For the same molecule, the “Plant response rating, Morningglory” value [10, 18] was 0, the “Plant response rating, Rice” value [11, 13] was 0 and the “Plant response rating, Rice” value [11, 14] was 0. The “Corn plant response rating” value [12, 15] was 0, the “Corn plant response rating” value [12, 16] was 0 and the “Plant response rating, Corn” value [12, 17] was 0. The “Plant response rating, Corn” value [12, 18] was 0.

In the case of `COc1nn(-c2ccc(C(F)(F)F)cc2)nc1Cn1cnc(C(F)(F)F)n1` [Compound 18], the “Plant response rating, Sedge, Umbrella” value [1, 13] is reported as 0, the “Plant response rating, Sedge, Umbrella” value [1, 19] is reported as 40 and the “Plant response rating, Sedge, Umbrella” value [1, 14] is reported as 65. For the same molecule, the “Plant response rating, Sedge, Umbrella” value ([1]; Flood, 31 g ai/ha) was 0, the “Barnyardgrass plant response rating” value [2, 15] was 50 and the “Barnyardgrass plant response rating” value [2, 16] was 60. The “Plant response rating, Barnyardgrass” value [2, 17] was 20, the “Plant response rating, Barnyardgrass” value [2, 18] was 30 and the “Foxtail, Giant plant response rating” value [3, 15] was 30. The “Foxtail, Giant plant response rating” value [3, 16] was 70, the “Plant response rating, Foxtail, Giant” value [3, 17] was 80 and the “Plant response rating, Foxtail, Giant” value [3, 18] was 90. The “Pigweed plant response rating” value [4, 15] was 100, the “Pigweed plant response rating” value [4, 16] was 100 and the “Plant response rating, Pigweed” value [4, 17] was 80. The “Plant response rating, Pigweed” value [4, 18] was 100, the “Wheat plant response rating” value [5, 15] was 20 and the “Wheat plant response rating” value [5, 16] was 30. The “Plant response rating, Wheat” value [5, 17] was 0, the “Plant response rating, Wheat” value [5, 18] was 0 and the “Velvetleaf plant response rating” value [6, 15] was 70. For the same molecule, the “Velvetleaf plant response rating” value [6, 16] was 80, the “Plant response rating, Velvetleaf” value [6, 17] was 20 and the “Plant response rating, Velvetleaf” value [6, 18] was 30. For the same molecule, the “Plant response rating, Ducksalad” value [7, 13] was 0, the “Plant response rating, Ducksalad” value [7, 19] was 0 and the “Plant response rating, Ducksalad” value [7, 14] was 0. The “Plant response rating, Ducksalad” value ([7]; Flood, 31 g ai/ha) was 0, the “Plant response rating, Barnyardgrass” value [8, 13] was 0 and the “Plant response rating, Barnyardgrass” value [8, 19] was 0. For the same molecule, the “Plant response rating, Barnyardgrass” value [8, 14] was 0, the “Plant response rating, Barnyardgrass” value ([8]; Flood, 31 g ai/ha) was 0 and the “Crabgrass, Large plant response rating” value [9, 15] was 60. The “Crabgrass, Large plant response rating” value [9, 16] was 80, the “Plant response rating, Crabgrass, Large” value [9, 17] was 90 and the “Plant response rating, Crabgrass, Large” value [9, 18] was 90. For the same molecule, the “Morningglory plant response rating” value [10, 15] was 80, the “Morningglory plant response rating” value [10, 16] was 90 and the “Plant response rating, Morningglory” value [10, 17] was 10. The “Plant response rating, Morningglory” value [10, 18] was 50, the “Plant response rating, Rice” value [11, 13] was 0 and the “Plant response rating, Rice” value [11, 19] was 0. The “Plant response rating, Rice” value [11, 14] was 0, the “Plant response rating, Rice” value ([11]; Flood, 31 g ai/ha) was 0 and the “Corn plant response rating” value [12, 15] was 20. The “Corn plant response rating” value [12, 16] was 30, the “Plant response rating, Corn” value [12, 17] was 0 and the “Plant response rating, Corn” value [12, 18] was 0.

`Cc1nn(-c2ccc(F)cc2)nc1Cn1c(Cl)nc(C(F)(F)F)c1Cl` [Compound 20] was tested, and the “Plant response rating, Sedge, Umbrella” value [1, 13] was 0, the “Plant response rating, Sedge, Umbrella” value [1, 19] was 0 and the “Plant response rating, Sedge, Umbrella” value [1, 14] was 0. For the same molecule, the “Plant response rating, Sedge, Umbrella” value ([1]; Flood, 31 g ai/ha) was 0, the “Barnyardgrass plant response rating” value [2, 15] was 0 and the “Barnyardgrass plant response rating” value [2, 16] was 0. For the same molecule, the “Plant response rating, Barnyardgrass” value [2, 17] was 0, the “Plant response rating, Barnyardgrass” value [2, 18] was 0 and the “Foxtail, Giant plant response rating” value [3, 15] was 0. The “Foxtail, Giant plant response rating” value [3, 16] was 10, the “Plant response rating, Foxtail, Giant” value [3, 17] was 0 and the “Plant response rating, Foxtail, Giant” value [3, 18] was 0. The “Pigweed plant response rating” value [4, 15] was 0, the “Pigweed plant response rating” value [4, 16] was 30 and the “Plant response rating, Pigweed” value [4, 17] was 0. For the same molecule, the “Plant response rating, Pigweed” value [4, 18] was 0, the “Wheat plant response rating” value [5, 15] was 0 and the “Wheat plant response rating” value [5, 16] was 0. The “Plant response rating, Wheat” value [5, 17] was 0, the “Plant response rating, Wheat” value [5, 18] was 0 and the “Velvetleaf plant response rating” value [6, 15] was 0. The “Velvetleaf plant response rating” value [6, 16] was 20, the “Plant response rating, Velvetleaf” value [6, 17] was 0 and the “Plant response rating, Velvetleaf” value [6, 18] was 0. For the same molecule, the “Plant response rating, Ducksalad” value [7, 13] was 0, the “Plant response rating, Ducksalad” value [7, 19] was 0 and the “Plant response rating, Ducksalad” value [7, 14] was 0. The “Plant response rating, Ducksalad” value ([7]; Flood, 31 g ai/ha) was 0, the “Plant response rating, Barnyardgrass” value [8, 13] was 0 and the “Plant response rating, Barnyardgrass” value [8, 19] was 0. For the same molecule, the “Plant response rating, Barnyardgrass” value [8, 14] was 0, the “Plant response rating, Barnyardgrass” value ([8]; Flood, 31 g ai/ha) was 0 and the “Crabgrass, Large plant response rating” value [9, 15] was 0. The “Crabgrass, Large plant response rating” value [9, 16] was 10, the “Plant response rating, Crabgrass, Large” value [9, 17] was 0 and the “Plant response rating, Crabgrass, Large” value [9, 18] was 0. For the same molecule, the “Morningglory plant response rating” value [10, 15] was 0, the “Morningglory plant response rating” value [10, 16] was 10 and the “Plant response rating, Morningglory” value [10, 17] was 0. For the same molecule, the “Plant response rating, Morningglory” value [10, 18] was 0, the “Plant response rating, Rice” value [11, 13] was 0 and the “Plant response rating, Rice” value [11, 19] was 0. The “Plant response rating, Rice” value [11, 14] was 0, the “Plant response rating, Rice” value ([11]; Flood, 31 g ai/ha) was 0 and the “Corn plant response rating” value [12, 15] was 0. The “Corn plant response rating” value [12, 16] was 10, the “Plant response rating, Corn” value [12, 17] was 0 and the “Plant response rating, Corn” value [12, 18] was 0.
